Test results: US11787780B2 (CORCEPT THERAPEUTICS INCORPORATED, priority 2020, dated 2023)

Each molecule was assayed on induction of TAT by dexamethasone in HepG2 cells (assay: Hep G2 TAT assay (inhibition of dexamethasone-induced TAT)). Details: challenge of 100 nM dexamethasone, IC50 converted to Ki by Cheng and Prusoff equation.
Assay type: cell-based, human
Method: Glucocorticoid mediated activation of TAT occurs by transactivation of glucocorticoid response elements in the TAT promoter by glucocorticoid receptor-agonist complex. The following protocol describes an assay for measuring induction of TAT by dexamethasone in HepG2 cells (a human liver hepatocellular carcinoma cell line; ECACC, UK).
TAT activity was measured as outlined in the literature by A. Ah et al., J. Med. Chem., 2004, 47, 2441-2452.
HepG2 cells were cultured using MEME media supplemented with 10% (v/v) foetal bovine serum; 2 mM L-glutamine and 1% (v/v) NEAA at 37° C., 5%/95% (v/v) CO2/air. The HepG2 cells were counted and adjusted to yield a density of 0.125×10^6 cells/ml in RPMI 1640 without phenol red, 10% (v/v) charcoal stripped FBS, 2 mM L-glutamine and seeded at 25,000 cells/well in 200 μl into 96 well, sterile, tissue culture micro titre plates, and incubated at 37° C., 5% CO2 for 24 hours
Growth media was removed and replaced with assay media {RPMI 1640 without phenol red, 2 mM L-glutamine+10 μM forskolin}. Test compounds were screened against a challenge of 100 nM dexamethasone. Compounds were serially half log diluted in 100% (v/v) dimethylsulphoxide from a 10 mM stock.
Test compounds were pre-incubated with cells in micro-titre plates for 30 minutes at 37° C., 5/95 (v/v) CO2/air, before the addition of 100 nM dexamethasone and then subsequently for 20 hours to allow optimal TAT induction.
HepG2 cells were then lysed with 30 μl of cell lysis buffer containing a protease inhibitor cocktail for 15 minutes at 4° C. […] After 2 hours incubation at 37° C. the reaction was terminated by the addition of 15 μl of 10M aqueous potassium hydroxide solution, and the plates incubated for a further 30 minutes at 37° C. The TAT activity product was measured by absorbance at λ 340 nm.
[compound] and fitting the data to a 4 parameter logistic equation. IC50 values were converted to Ki (equilibrium dissociation constant) using the Cheng and Prusoff equation, assuming the antagonists were competitive inhibitors with respect to dexamethasone.

Structure (SMILES)	Ki
Cc1cc2c(cnn2-c2ccc(F)cc2)cc1C1(CC#Cc2ccccc2)CCN(S(=O)(=O)c2cnn(C)c2)C1 (centres unmarked) [Example 211, 1-(4-fluorophenyl)-6-methyl-5-(1-((1-methyl-1H-pyrazol-4-yl)sulfonyl)-3-(3-phenylprop-2-yn-1-yl)pyrrolidin-3-yl)-1H-indazole]	47 nM
Cc1cc(S(=O)(=O)N2CCC(Cc3ccccc3)(c3cc4cnn(-c5ccc(=O)n(C)c5)c4cc3C)C2)n(C)n1 (centres unmarked) [Example 283, 5-(5-(3-benzyl-1-((1,3-dimethyl-1H-pyrazol-5-yl)sulfonyl)pyrrolidin-3-yl)-6-methyl-1H-indazol-1-yl)-1-methylpyridin-2(1H)-one]	64 nM
CS(=O)(=O)N1CCC(Cc2ccccc2)(c2cc3cnn(-c4ccc(F)cc4)c3cc2F)C1 (centres unmarked) [Example 181]	165 nM
Cc1ncc(CC2(c3cc4cnn(-c5ccc(F)cc5)c4cc3C)CCN(C(=O)c3ccccc3)C2)s1 (centres unmarked) [Example 234, (3-(1-(4-fluorophenyl)-6-methyl-1H-indazol-5-yl)-3-((2-methylthiazol-5-yl)methyl)pyrrolidin-1-yl)(phenyl)methanone]	150 nM
Cc1cc2c(cnn2-c2ccc(F)cc2)cc1C1(Cc2nccs2)CCN(S(C)(=O)=O)C1 (centres unmarked) [Example 187]	199 nM
Cc1cc2c(cnn2-c2ccc(=O)n(C)c2)cc1C1(Cc2ccccc2)CCN(S(=O)(=O)c2cn(C)nc2C)C1 (centres unmarked) [Example 282, 5-(5-(3-benzyl-1-((1,3-dimethyl-1H-pyrazol-4-yl)sulfonyl)pyrrolidin-3-yl)-6-methyl-1H-indazol-1-yl)-1-methylpyridin-2(1H)-one]	120 nM
COCCn1cc(S(=O)(=O)N2CCN(c3cc4cnn(-c5ccc(F)cc5)c4cc3C)CC23CC3)cn1 [Example 78]	70 nM
COc1cc2c(cnn2-c2ccc(F)cc2)cc1C1(Cc2ccc(F)cc2)CCN(S(=O)(=O)C2CC2)C1 (centres unmarked) [Example 220, 5-(1-(cyclopropylsulfonyl)-3-(4-fluorobenzyl)pyrrolidin-3-yl)-1-(4-fluorophenyl)-6-methoxy-1H-indazole]	24 nM
COCCn1cc(S(=O)(=O)N2CCC(Cc3ccccc3)(c3cc4cnn(-c5ccc(=O)n(C)c5)c4cc3C)C2)cn1 (centres unmarked) [Example 281, 5-(5-(3-benzyl-1-((1-(2-methoxyethyl)-1H-pyrazol-4-yl)sulfonyl)pyrrolidin-3-yl)-6-methyl-1H-indazol-1-yl)-1-methylpyridin-2(1H)-one]	75 nM
Cc1cc2c(cnn2-c2ccc(F)cc2)cc1C1(/C=C/c2ccccc2)CCN(S(=O)(=O)c2cnn(C)c2)C1 (centres unmarked) [Example 342, (E)-1-(4-fluorophenyl)-6-methyl-5-(1-((1-methyl-1H-pyrazol-4-yl)sulfonyl)-3-styrylpyrrolidin-3-yl)-1H-indazole]	110 nM
CCCn1cc(S(=O)(=O)N2CCN(c3cc4cnn(-c5ccc(F)cc5)c4cc3C)[C@@H](C)C2)cn1 [Example 87]	42 nM
Cn1cc(S(=O)(=O)N2CCC(Cc3ccccc3)(c3ccc4c(cnn4-c4ccc(F)cc4)c3)C2)cn1 (centres unmarked) [Example 158]	161 nM
Cc1cc2c(cnn2-c2ccc(F)cc2)cc1C1(Cc2nccs2)CCN(S(=O)(=O)c2cnn(C)c2)C1 (centres unmarked) [Example 188]	173 nM
CCCn1cc(N(C)S(=O)(=O)C2CCN(c3cc4cnn(-c5ccc(F)cc5)c4cc3C)C2)cn1 (centres unmarked) [Example 30, 1-(1-(4-fluorophenyl)-6-methyl-1H-indazol-5-yl)-N-methyl-N-(1-propyl-1H-pyrazol-4-yl)pyrrolidine-3-sulfonamide]	206 nM
Cc1cc(-n2ncc3cc(C4(Cc5ccccc5)CCN(S(=O)(=O)c5cnn(C)n5)C4)c(C)cc32)ccn1 (centres unmarked) [Example 240, 5-(3-benzyl-1-((2-methyl-2H-1,2,3-triazol-4-yl)sulfonyl)pyrrolidin-3-yl)-6-methyl-1-(2-methylpyridin-4-yl)-1H-indazole]	73 nM
Cc1cc2c(cnn2-c2ccc(F)cc2)cc1C1(Cc2ccccc2)CCN(C(=O)Cc2csc3ccccc23)C1 (centres unmarked) [Example 202, 2-(benzo[b]thiophen-3-yl)-1-(3-benzyl-3-(1-(4-fluorophenyl)-6-methyl-1H-indazol-5-yl)pyrrolidin-1-yl)ethan-1-one]	67 nM

Structure (SMILES)	Ki
CCCn1cc(S(=O)(=O)N2CCC(Cc3ccccc3)(c3ccc4c(cnn4-c4ccc(F)cc4)c3)C2)cn1 (centres unmarked) [Example 159]	101 nM
Cc1cc2c(cnn2-c2ccc(=O)n(C)c2)cc1C1(Cc2ccccc2)CCN(S(=O)(=O)c2cnn(C(F)F)c2)C1 (centres unmarked) [Example 280, 5-(5-(3-benzyl-1-((1-(difluoromethyl)-1H-pyrazol-4-yl)sulfonyl)pyrrolidin-3-yl)-6-methyl-1H-indazol-1-yl)-1-methylpyridin-2(1H)-one]	42 nM
CCCn1cc(S(=O)(=O)N2CCC(c3cc4cnn(-c5ccc(F)cc5)c4cc3Cl)CC2)cn1 [Example 140]	50 nM
COc1cc2c(cnn2-c2ccc(F)cc2)cc1C1(Cc2ccc(F)cc2)CCN(S(=O)(=O)c2cn(C)cn2)C1 (centres unmarked) [Example 216, 5-(3-(4-fluorobenzyl)-1-((1-methyl-1H-imidazol-4-yl)sulfonyl)pyrrolidin-3-yl)-1-(4-fluorophenyl)-6-methoxy-1H-indazole]	53 nM
CCc1cc2c(cnn2-c2ccc(=O)n(C)c2)cc1C1(Cc2ccccc2)CCN(S(=O)(=O)c2cnn(C)n2)C1 (centres unmarked) [Example 333, 5-(5-(3-benzyl-1-((2-methyl-2H-1,2,3-triazol-4-yl)sulfonyl)pyrrolidin-3-yl)-6-ethyl-1H-indazol-1-yl)-1-methylpyridin-2(1H)-one]	41 nM
COc1cc2c(cnn2-c2ccc(F)cc2)cc1C1(Cc2ccccc2)CCN(C(=O)c2cscn2)C1 (centres unmarked) [Example 230, (3-benzyl-3-(1-(4-fluorophenyl)-6-methoxy-1H-indazol-5-yl)pyrrolidin-1-yl)(thiazol-4-yl)methanone]	74 nM
Cc1cc2c(cnn2-c2cccc(C(=O)NC3CCOC3)c2)cc1C1=CCN(S(C)(=O)=O)CC1 (centres unmarked) [Example 146]	942 nM
Cn1ncc(S(=O)(=O)N2CCC(Cc3ccccc3)(c3cc4cnn(-c5ccc(F)cc5)c4cc3C#N)C2)n1 (centres unmarked) [Example 334, 5-(3-benzyl-1-((2-methyl-2H-1,2,3-triazol-4-yl)sulfonyl)pyrrolidin-3-yl)-1-(4-fluorophenyl)-1H-indazole-6-carbonitrile]	52 nM
Cc1cc2c(cnn2-c2cccnc2)cc1C1(Cc2ccccc2)CCN(S(=O)(=O)c2cnn(C)n2)C1 (centres unmarked) [Example 238, 5-(3-benzyl-1-((2-methyl-2H-1,2,3-triazol-4-yl)sulfonyl)pyrrolidin-3-yl)-6-methyl-1-(pyridin-3-yl)-1H-indazole]	64 nM
Cc1cc2c(cnn2-c2ccc(F)cc2)cc1C1(CCCc2ccccc2)CCN(S(=O)(=O)c2cnn(C)c2)C1 (centres unmarked) [Example 346, 1-(4-fluorophenyl)-6-methyl-5-(1-((1-methyl-1H-pyrazol-4-yl)sulfonyl)-3-(3-phenylpropyl)pyrrolidin-3-yl)-1H-indazole]	140 nM
CCCn1cc(S(=O)(=O)N2CCC3(c4cc5cnn(-c6ccc(F)cc6)c5cc4C)C(C2)C3(F)F)cn1 (centres unmarked) [Example 27, 5-(7,7-difluoro-3-((1-propyl-1H-pyrazol-4-yl)sulfonyl)-3-azabicyclo[4.1.0]heptan-6-yl)-1-(4-fluorophenyl)-6-methyl-1H-indazole]	759 nM
Cc1cc2c(cnn2-c2ccc(F)cc2)cc1C1(C(=O)c2ccccc2)CCN(S(=O)(=O)c2cnn(C)c2)C1 (centres unmarked) [Example 345, (3-(1-(4-fluorophenyl)-6-methyl-1H-indazol-5-yl)-1-((1-methyl-1H-pyrazol-4-yl)sulfonyl)pyrrolidin-3-yl)(phenyl)methanone]	220 nM
Cc1cc2c(cnn2-c2ccc(F)cc2)cc1C1(Cc2ccccc2)CCN(C(=O)c2ccsc2)C1 (centres unmarked) [Example 203, (3-benzyl-3-(1-(4-fluorophenyl)-6-methyl-1H-indazol-5-yl)pyrrolidin-1-yl)(thiophen-3-yl)methanone]	21 nM
Cc1cc2c(cnn2-c2ccc(=O)n(C)c2)cc1C1(Cc2ccccc2)CCN(S(=O)(=O)c2cnn(C3CCC3)c2)C1 (centres unmarked) [Example 279, 5-(5-(3-benzyl-1-((1-cyclobutyl-1H-pyrazol-4-yl)sulfonyl)pyrrolidin-3-yl)-6-methyl-1H-indazol-1-yl)-1-methylpyridin-2(1H)-one]	50 nM
CCn1cc(S(=O)(=O)N2CCC(Cc3ccccc3)(c3cc4cnn(-c5ccc(=O)n(C)c5)c4cc3C)C2)nn1 (centres unmarked) [Example 291, 5-(5-(3-benzyl-1-((1-ethyl-1H-1,2,3-triazol-4-yl)sulfonyl)pyrrolidin-3-yl)-6-methyl-1H-indazol-1-yl)-1-methylpyridin-2(1H)-one]	110 nM
CCCn1cc(S(=O)(=O)N2C[C@H]3CN(c4cc5cnn(-c6ccc(F)cc6)c5cc4C)C[C@H]3C2)cn1 [Example 93]	216 nM
